Measurements from ChEMBL document CHEMBL1148727, “Discovery of 1,4-dihydroxy-2-naphthoate [corrected] prenyltransferase inhibitors: new drug leads for multidrug-resistant gram-positive pathogens” (2007).
Converted amounts (≈) assume the structure as drawn.

Experiments:
Type in all cases: functional
[1] = tested on: Mycobacterium tuberculosis; assay: Antibacterial activity against isoniazid-resistant Mycobacterium tuberculosis H37Rv after 18 hrs by agar plate dilution method
[2] = tested on: Mycobacterium tuberculosis variant bovis BCG; assay: Antibacterial activity against Mycobacterium bovis BCG Tokyo after 18 hrs by agar plate dilution method
[3] = tested on: Mycobacterium tuberculosis; assay: Antibacterial activity against rifampicin-resistant Mycobacterium tuberculosis H37Rv after 18 hrs by agar plate dilution method

SMILES | MIC [1] | MIC [2] | MIC [3]
C=CCN(C)CCCCCCCCOc1ccc(C(=O)c2ccc(Cl)cc2)c(O)c1 | 1.5 µg/mL (≈ 3.49 µM) | 3.1 µg/mL (≈ 7.21 µM) | 1.5 µg/mL (≈ 3.49 µM)
NNC(=O)c1ccncc1 [ISONIAZID] | > 25 µg/mL | 0.1 µg/mL (≈ 0.729 µM) | 0.05 µg/mL (≈ 0.365 µM)
CO[C@H]1/C=C/O[C@@]2(C)Oc3c(C)c(O)c4c(O)c(c(/C=N/N5CCN(C)CC5)c(O)c4c3C2=O)NC(=O)/C(C)=C\C=C\[C@H](C)[C@H](O)[C@@H](C)[C@@H](O)[C@@H](C)[C@H](OC(C)=O)[C@@H]1C [RIFAMPIN] | 0.2 µg/mL (≈ 0.243 µM) | 0.1 µg/mL (≈ 0.122 µM) | > 25 µg/mL
